For assay [1], the system named is Cryptococcus neoformans. The experiment in a line: MIC, twofold serial broth dilution assay, Cryptococcus neoformans. The assay is classed as cell-based, Cryptococcus neoformans ATCC 32264. The note with it: 48 h, Cn, 26°. The protocol: (§1) The generic name for the compound is 3-Methoxysampangine. The antifungal activity of the compound was determined by in vitro evaluation against Candida albicans NIH B311, Cryptococcus neoformans ATCC 32264, and Aspergillus fumigatus ATCC 26934 using the known agar-well diffusion assay techniques with the following modifications.
(§2) Candida albicans NIH B311 used to induce experimental disseminated candidiasis was used for the initial qualitative evaluation of anticandidal activity. The organism was grown in Sabouraud-dextrose broth (SDB) for 24 hours at 37°, at which time the cells were harvested by centrifugation at (4°, 2000 rpm, 3 min.). After centrifugation, the cells were washed and suspended in sterile 0.9% saline to give a final concentration of 10^6 colony forming units (CFU) per ml (adjusted using a hemocytometer). Inocula of Cryptococcus neoformans and Aspergillus fumigatus were prepared by suspension of the surface growth of stock agar slants in sterile H2 O. Culture plates (15×100 mm) for the qualitative assay were prepared from 25 ml of Sabouraud-dextrose agar for Candida albicans, and Mycophil™ agar for Cryptococcus neoformans and Aspergillus fumigatus. Using sterile cotton swabs, the plates were streaked with the suspension of appropriate test organism. Cylindrical plugs were removed from the agar plates by means of sterile cork borer to produce wells with a diameter of approximately 11 mm. To the well was added 100 μl of solution or suspension of an extract, fraction, or pure compound. Crude extracts and fractions were tested at a concentration of 20 mg/ml, whereas pure compounds were tested at 1 mg/ml. When solvents other than water, ethanol, methanol, dimethylsulfoxide (DMSO), dimethylformamide (DMF), or acetone were required to dissolve extracts or compounds, solvent blanks were included. Antifungal activity was recorded as the width (in mm) of the zone of inhibition, measured from the edge of the agar well to the edge of the zone, following incubation of the plates for 24 hours (37° for Candida albicans, 30° for Aspergillus fumigatus and 26° for Cryptococcus neoformans). The antifungal agents amphotericin B and ketoconazole were included as positive controls in each assay.
(§3) The method used to determine the minimum inhibitory concentration (MIC) was the twofold serial broth dilution assay in one or more of the following broth media: yeast nitrogen broth, Mycophil™ broth and Saboraud-dextrose broth (SDB). The inoculum for the MIC determination was prepared as described above for the qualitative evaluation. Using a calibrated sterile wire loop, each tube was inoculated with 10 μl of the suspension. The MIC value was taken as the lowest concentration of compound that inhibited the growth of the test organisms after an appropriate incubation period (37° for 24 hours for Candida albicans; 30° for 48 hours for Aspergillus fumigatus; 26° for 48 hours for Cryptococcus neoformans). The antifungal agent amphotericin B was included as positive control in each assay.
A general note: Broth dilution looks for growth in wells or tubes with falling amounts of substance.

Assay [2] has as its system Candida albicans. The experiment in a line: MIC, twofold serial broth dilution assay, Candida albicans. The assay is classed as cell-based, Candida albicans NIH B311. The note with it: 24 h, 37°. The protocol: as §2, §3
Assay [3] relates to Aspergillus fumigatus. The experiment in a line: MIC, twofold serial broth dilution assay, Aspergillus fumigatus. The format is cell-based, Aspergillus fumigatus ATCC 26934. The settings on record: Af, 30°, 48 hours. Here is the method:
as §1, §2, §3

Assay [4] relates to Candida albicans, Cryptococcus neoformans and Aspergillus fumigatus. Briefly: in vitro antifungal activity, overall statement in words. The assay is classed as cell-based. The note with it: against both yeasts and the filamentous fungus. Here is the method: as §1, §2
The method used to determine the minimum inhibitory concentration (MIC) was the twofold serial broth dilution assay in one or more of the following broth media: yeast nitrogen broth, Mycophil™ broth and Saboraud-dextrose broth (SDB). The inoculum for the MIC determination was prepared as described above for the qualitative evaluation. Using a calibrated sterile wire loop, each tube was inoculated with 10 μl of the suspension. […]

In assay [5] the test system is Candida albicans. The note with it: J. Natural Products 1987, Hufford et al.; cited from earlier work.
[6] abbreviates: Cryptococcus neoformans, MYCO (Mycophil broth).
[7] abbreviates: Candida albicans, Ca B311, MYCO (Mycophil broth).
The mark [8] stands for this setting: YNB (yeast nitrogen base broth).
Setting [9] is: Cryptococcus neoformans, SDB (Sabouraud dextrose broth).
Where [10] appears, read: Ca B311, YNB (yeast nitrogen base broth).
Setting [11] is: Candida albicans, Ca B311, SDB (Sabouraud dextrose broth).

The values that follow come from patent publication US5128344A, “Sampangine and derivatives useful as an antifungal agent” (University of Mississippi, priority 1990, dated 1992).

Values after ≈ are worked out from the molar mass of the structure shown. “Also recorded” adds a separate entry of the source.

For the compound `C[C@@H]1[C@H](O)[C@@H](C)/C=C/C=C/C=C/C=C/C=C/C=C/C=C/[C@H](O[C@@H]2O[C@H](C)[C@@H](O)[C@H](N)[C@@H]2O)C[C@@H]2O[C@](O)(C[C@@H](O)C[C@@H](O)[C@H](O)CC[C@@H](O)C[C@@H](O)CC(=O)O[C@H]1C)C[C@H](O)[C@H]2C(=O)O` [Amphotericin B, reference compound], the MIC (commonly the smallest concentration in the dilution series that meets the test's criterion for growth inhibition) in assay [1] (setting [6]) stood at 0.2 µg/mL (≈ 0.216 µM); in assay [2] (setting [7]), 0.2 µg/mL (≈ 0.216 µM); in assay [3] (MYCO (Mycophil broth)), 3.12 µg/mL (≈ 3.38 µM).

For the compound `COc1cnc2c3c(nccc13)-c1ccccc1C2=O` [4-Methoxysampangine], the MIC in assay [1] (setting [8]) came to 12.5 µg/mL (≈ 47.7 µM); in assay [1] (setting [6]) it was 1.56 µg/mL (≈ 5.95 µM); in assay [1] (setting [9]), 3.12 µg/mL (≈ 11.9 µM); in assay [2] (setting [10]), 3.12 µg/mL (≈ 11.9 µM); in assay [2] (setting [7]), 100 µg/mL (≈ 381 µM); in assay [2] (setting [11]), 100 µg/mL (≈ 381 µM). Further, the “antifungal activity (in words)” value in assay [4] is reported as “significant antifungal activity”.

In the case of `c1ccc2c(c1)-c1nccc3ccnc-2c13` [eupolauridine], the “anticandidal properties (in words)” value in assay [5] was “possibly remarkable anticandidal properties”.

Regarding `COc1cnc2c3c(nccc13)C(=O)c1ccccc1-2` [3-Methoxysampangine], the figures for the MIC in assay [1] (setting [9]), in assay [2] (setting [11]) and in assay [3] (SDB (Sabouraud dextrose broth)) were 0.2 µg/mL (≈ 0.763 µM), 3.12 µg/mL (≈ 11.9 µM) and 3.12 µg/mL (≈ 11.9 µM), respectively. Besides, the “antifungal activity (in words)” value in assay [4] is reported as “significant antifungal activity; also recorded: remarkable antifungal properties”.

Take `O=C1c2ccccc2-c2nccc3ccnc1c23` [Sampangine]: the minimal inhibitory concentration (MIC) was less than 0.005 µg/mL in assay [1] (YNB (yeast nitrogen base broth) (original)); less than 0.2 µg/mL in assay [1] (setting [8]); 0.78 µg/mL (≈ 3.36 µM) in assay [1] (setting [6]); less than 0.2 µg/mL in assay [1] (setting [9]); 1.56 µg/mL (≈ 6.72 µM) in assay [2] (Ca B311, YNB (yeast nitrogen base broth) (original)); 0.78 µg/mL (≈ 3.36 µM) in assay [2] (setting [10]). Further, the MIC in assay [2] (setting [7]) is 12.5 µg/mL (≈ 53.8 µM); in assay [2] (setting [11]), 6.25 µg/mL (≈ 26.9 µM); in assay [3] (MYCO (Mycophil broth)), 1.56 µg/mL (≈ 6.72 µM). Further, in assay [4], the “antifungal activity (in words)” value is “significant antifungal activity”.

Regarding `O=C1c2ccccc2-c2nccc3c2c1nc1ccccc13` [Benzo[4,5]sampangine], the MIC in assay [1] (setting [8]) is 1.56 µg/mL (≈ 5.53 µM); in assay [1] (setting [6]), less than 0.2 µg/mL; in assay [1] (setting [9]), less than 0.2 µg/mL; in assay [2] (setting [10]) it was 3.12 µg/mL (≈ 11.1 µM); in assay [2] (setting [7]) it was 50 µg/mL (≈ 177 µM); in assay [2] (setting [11]), 1.56 µg/mL (≈ 5.53 µM). This compound registered an MIC in assay [3] (MYCO (Mycophil broth)) of 0.39 µg/mL (≈ 1.38 µM).

Turning to `O=C1c2ccccc2-c2nccc3c(Br)cnc1c23` [4-Bromosampangine], the MIC in assay [1] (setting [8]) is less than 0.2 µg/mL; in assay [1] (setting [6]), less than 0.2 µg/mL; in assay [1] (setting [9]), 0.39 µg/mL (≈ 1.25 µM); in assay [2] (setting [10]), 12.5 µg/mL (≈ 40.2 µM); in assay [2] (setting [7]), 25 µg/mL (≈ 80.4 µM); in assay [2] (setting [11]) it was 25 µg/mL (≈ 80.4 µM). Besides, the MIC in assay [3] (MYCO (Mycophil broth)) came to 50 µg/mL (≈ 161 µM). The “antifungal activity (in words)” value in assay [4] is “significant antifungal activity”.
